Assay: Water content of the crystalline forms (gravimetric vapour sorption, 25° C.)
Format: physicochemical
Conditions: water content varies as a function of relative humidity; GVS profiles 20 to 75% RH at 25° C. (FIGS. 4-6); hydrochloride
Description: Measurements were performed on an IGASORP Model HAS-036-080 moisture sorption instrument (Hiden Isochema, Warrington, UK) operated in stepping mode at 25° C. The sample was allowed to equilibrate at the starting relative humidity (RH) before starting a pre-defined humidity program in steps of 5% ΔRH and with a maximal equilibration time of 24 hours per step. About 20 to 30 mg of each sample was used.

Row | SMILES | coordinated and/or non-coordinated water comprised in the crystalline form [%]
1 | CCCCOC(=O)N1CCN(C(=O)[C@H](CP(=O)(O)O)NC(=O)c2cc(N3CC[C@H](OC)C3)nc(-c3ccccc3)n2)CC1.Cl [Crystalline form 1, 4-((R)-2-{[6-((S)-3-methoxy-pyrrolidin-1-yl)-2-phenyl-pyrimidine-4-carbonyl]-amino}-3-phosphono-propionyl)-piperazine-1-carboxylic acid butyl ester hydrochloride] | 0 to 3
2 | CCCCOC(=O)N1CCN(C(=O)[C@H](CP(=O)(O)O)NC(=O)c2cc(N3CC[C@H](OC)C3)nc(-c3ccccc3)n2)CC1.Cl [Crystalline form 3, 4-((R)-2-{[6-((S)-3-methoxy-pyrrolidin-1-yl)-2-phenyl-pyrimidine-4-carbonyl]-amino}-3-phosphono-propionyl)-piperazine-1-carboxylic acid butyl ester hydrochloride] | 2.5 to 8
3 | CCCCOC(=O)N1CCN(C(=O)[C@H](CP(=O)(O)O)NC(=O)c2cc(N3CC[C@H](OC)C3)nc(-c3ccccc3)n2)CC1.Cl [Crystalline form 2, 4-((R)-2-{[6-((S)-3-methoxy-pyrrolidin-1-yl)-2-phenyl-pyrimidine-4-carbonyl]-amino}-3-phosphono-propionyl)-piperazine-1-carboxylic acid butyl ester hydrochloride] | 5 to 10
